Legend:
[1] = target: Bcl-2 (Homo sapiens, UniProt P10415); experiment: Bcl-2 binding affinity analysis (fluorescence polarization binding assay); settings: read-out: BcI2 (Ki, Bcl-2 binding affinity)
[2] = target: Bcl-xL (Homo sapiens, UniProt Q07817); experiment: Bcl-xL binding affinity analysis (fluorescence polarization binding assay); settings: read-out: BcI-XI (Ki, Bcl-xL binding affinity)
Sequence of Bcl-xL (Q07817 whole entry): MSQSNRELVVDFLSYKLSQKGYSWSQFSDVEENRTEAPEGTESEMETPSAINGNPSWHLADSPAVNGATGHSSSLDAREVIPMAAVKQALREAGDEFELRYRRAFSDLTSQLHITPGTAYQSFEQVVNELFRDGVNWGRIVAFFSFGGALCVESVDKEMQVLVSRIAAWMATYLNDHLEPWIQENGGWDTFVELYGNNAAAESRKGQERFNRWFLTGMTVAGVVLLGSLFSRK

Sequence of Bcl-2 (P10415 whole entry): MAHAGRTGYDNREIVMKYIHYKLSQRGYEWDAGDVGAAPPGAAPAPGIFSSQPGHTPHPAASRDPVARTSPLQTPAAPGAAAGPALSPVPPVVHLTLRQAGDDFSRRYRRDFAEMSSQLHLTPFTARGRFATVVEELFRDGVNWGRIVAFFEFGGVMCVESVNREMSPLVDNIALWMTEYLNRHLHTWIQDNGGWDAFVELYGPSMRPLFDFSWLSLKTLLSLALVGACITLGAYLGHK

| Ki [1] [nM] | Ki [2] [nM] | Structure (SMILES) |
| --- | --- | --- |
| 5 to 9 | 5000 to 10000 | COC[C@@H](Cc1ccccc1)NC(=O)c1cc(-c2cccc(CN3O[C@@H](CO)[C@@H]([C@H](C)O)[C@H]3C(=O)N[C@H]3C[C@H]4C[C@@H]([C@@H]3C)C4(C)C)c2OC)cc(N(C)C)c1 [Compound 12] |
| < 1 | < 1000 | COc1c(CN2O[C@@H](CO)[C@@H]([C@H](C)O)[C@H]2C(=O)N[C@H]2C[C@H]3C[C@@H]([C@@H]2C)C3(C)C)cccc1-c1cc(C(=O)N[C@@H](Cc2ccccc2)CN(C)C)cc(N(C)CC(=O)N(C)C)c1 [Compound 308] |
| < 1 | < 1000 | COc1c(CN2O[C@@H](CO)[C@@H]([C@H](C)O)[C@H]2C(=O)N[C@H]2C[C@H]3C[C@@H]([C@@H]2C)C3(C)C)cccc1-c1cc(CN)cc(C(=O)N[C@@H](Cc2ccccc2)CN(C)C)c1 [295 amine] |
| < 1 | < 1000 | COc1c(CN2O[C@@H](CO)[C@@H]([C@H](C)O)[C@H]2C(=O)N[C@H]2C[C@H]3C[C@@H]([C@@H]2C)C3(C)C)cccc1-c1cc(C(=O)N[C@H](CN(C)C)[C@H](O)c2ccccc2)cc(N(C)C)c1 [Compound 136] |
| < 1 | < 1000 | COc1c(CN2O[C@@H](CO)[C@@H]([C@H](C)O)[C@H]2C(=O)N[C@H]2C[C@H]3CC([C@@H]2C)C3(C)C)cccc1-c1cc(C(=O)N[C@@H](Cc2ccccc2)CN(C)C)cc(N2CCC[C@@H]2CO)c1 [Compound 296] |

The remaining lines, values behind:

| Structure (SMILES) | Ki [1] [nM] | Ki [2] [nM] |
| --- | --- | --- |
| C[C@@H]1[C@@H](NC(=O)[C@@H]2[C@H]([C@H](C)O)[C@H](CN)ON2Cc2cccc(-c3cc(C(=O)N[C@@H](Cc4ccccc4)CN(C)C)cc(N(C)C)c3)c2F)C[C@H]2C[C@@H]1C2(C)C [Compound 38] | < 1 | > 10000 |
| COc1c(CN2O[C@@H](CO)[C@@H]([C@H](C)O)[C@H]2C(=O)N[C@H]2C[C@H]3C[C@@H]([C@@H]2C)C3(C)C)cccc1-c1cc(C(=O)N[C@@H](CC(C)C)C(N)=O)cc(N(C)C)c1 [Compound 260] | 1 to 5 | < 1000 |
| COc1c(CN2O[C@@H](CN=C(N(C)C)N(C)C)[C@@H]([C@H](C)O)[C@H]2C(=O)N[C@H]2C[C@H]3C[C@@H]([C@@H]2C)C3(C)C)cccc1-c1cc(C(=O)NCCc2ccccc2)cc(N(C)C)c1 [Compound 86] | > 9 | > 10000 |
| COc1c(CN2O[C@@H](CO)[C@@H]([C@H](C)O)[C@H]2C(=O)N[C@H]2C[C@H]3C[C@@H]([C@@H]2C)C3(C)C)cccc1-c1cc2c(c(C(=O)N[C@H](CN(C)C)CC(C)(C)C)c1)OCC2 [Compound 256] | < 1 | < 1000 |
| COc1c(CN2O[C@@H](CO)[C@@H]([C@H](C)O)[C@H]2C(=O)N[C@H]2C[C@H]3C[C@@H]([C@@H]2C)C3(C)C)cccc1-c1cc(C(=O)N[C@H](CN2CCCC2)[C@H](O)c2ccccc2)cc(N(C)C)c1 [Compound 160] | < 1 | < 1000 |
| COc1c(CN2O[C@@H](CO)[C@@H]([C@H](C)O)[C@H]2C(=O)N[C@H]2C[C@H]3C[C@@H]([C@@H]2C)C3(C)C)cccc1-c1cc(C(=O)N[C@H](CN(C)C)[C@@H](NS(C)(=O)=O)c2ccccc2)cc(N(C)CCO)c1 [Compound 290] | < 1 | < 1000 |
| COc1c(CN2O[C@@H](CO)[C@@H]([C@H](C)O)[C@H]2C(=O)N[C@H]2C[C@H]3C[C@@H]([C@@H]2C)C3(C)C)cccc1-c1cc(C(=O)N[C@@H](Cc2cccs2)CN(C)C)cc(N(C)C)c1 [Compound 251] | < 1 | < 1000 |
| COc1c(CN2O[C@@H](CNC(C)=O)[C@@H]([C@H](C)O)[C@H]2C(=O)N[C@H]2C[C@H]3C[C@@H]([C@@H]2C)C3(C)C)cccc1-c1cc(C(=O)NCCc2ccccc2)cc(N(C)C)c1 [Compound 76] | 5 to 9 | > 10000 |

— patent US8178690B2, “Compounds and methods for inhibiting the interaction of BCL proteins with binding partners” (Infinity Pharmaceuticals, Inc., priority 2006, dated 2012)
